Data from the SangsterLogP compilation.

Test: method code SF, from DOI: 10.1021/jm00128a037, PMID: 2754714

Row | SMILES | logP
1 | CCCCOC(=O)CCCc1cc(CN2CCCC2)c(O)c(CN2CCCC2)c1 | 1.11
2 | CCCOC(=O)Cc1cc(CN2CCCC2)c(O)c(CN2CCCC2)c1 | -0.37
3 | CCCCOC(=O)Cc1cc(CN2CCCC2)c(O)c(CN2CCCC2)c1 | 0.18
4 | CCOC(=O)Cc1cc(CN2CCCC2)c(O)c(CN2CCCC2)c1 | -0.74
5 | CCCCOC(=O)CCc1cc(CN2CCCC2)c(O)c(CN2CCCC2)c1 | 0.3
6 | CC(C)COC(=O)CCCc1cc(CN2CCCC2)c(O)c(CN2CCCC2)c1 | 0.86
7 | CC(C)COC(=O)Cc1cc(CN2CCCC2)c(O)c(CN2CCCC2)c1 | 0.1

Next, values leading:

Row | logP | SMILES
8 | -0.11 | CCCOC(=O)CCc1cc(CN2CCCC2)c(O)c(CN2CCCC2)c1
9 | -0.41 | CC(C)OC(=O)Cc1cc(CN2CCCC2)c(O)c(CN2CCCC2)c1
10 | -0.21 | CC(C)OC(=O)CCc1cc(CN2CCCC2)c(O)c(CN2CCCC2)c1
11 | 0.19 | CC(C)COC(=O)CCc1cc(CN2CCCC2)c(O)c(CN2CCCC2)c1
